Measurements reported in US8993630B2, “Substituted sulphonamido phenoxybenzamides” (Bayer Intellectual Property GmbH, priority 2008, dated 2015).

Tests used:
MEK1 = molecular target: T1, MEK1 (Homo sapiens, UniProt Q02750); test: MEK1 activation kinase assay (Cot1/GST-MEK1 HTRF); assay type: biochemical; conditions: GST-MEK1 substrate, read-out: IC50, inhibition of MEK1 activation
T1 construct: purchased Millipore 14-420 (GST-MEK1); 14-703 (Cot1); host or cells: Cot1: insect cells (SF21)
Text: The kinase Cot1 activates MEK1 by phosphorylating its activation loop. The inhibitory activity of compounds of the present invention on this activation of MEK1 was quantified employing the HTRF assay described in the following paragraphs.
N-terminally His6-tagged recombinant kinase domain of the human Cot1 (amino acids 30-397, purchased from Millipore, cat. no 14-703) expressed in insect cells (SF21) and purified by Ni-NTA affinity chromatography was used as kinase. As substrate for the kinase reaction the unactive C-terminally His6-tagged GST-MEK1 fusion protein (Millipore cat. no 14-420) was used.
For the assay 50 nl of a 100fold concentrated solution of the test compound in DMSO was pipetted into a black low volume 384well microtiter plate (Greiner Bio-One, Frickenhausen, Germany), 3 μl of a solution of 24 nM GST-MEK1 and 166.7 μM adenosine-tri-phosphate (ATP) in assay buffer [50 mM Tris/HCl pH 7.5, 10 mM MgCl2, 2 mM dithiothreitol, 0.01% (v/v) Igepal CA 630 (Sigma), 5 mM β-phospho-glycerol] were added and the mixture was incubated for 10 min at 22° C. to allow pre-binding of the test compounds to the GST-MEK1 before the start of the kinase reaction. Then the kinase reaction was started by the addition of 2 μl of a solution of Cot1 in assay buffer and the resulting mixture was incubated for a reaction time of 20 min at 22° C. The concentration of Cot1 in the assay was adjusted depending of the activity of the enzyme lot and was chosen appropriate to have the assay in the linear range, typical enzyme concentrations were in the range of about 2 ng/μl (final conc. in the 5 μl assay volume). The reaction was stopped by the addition of 5 μl of a solution of HTRF detection reagents (13 nM anti GST-XL665 [# 61GSTXLB, Fa. Cis Biointernational, Marcoule, France], 1 nM Eu-cryptate labelled anti-phospho-MEK 1/2 (Ser217/221) [#61P17KAZ, Fa. Cis Biointernational],) in an aqueous EDTA-solution (100 mM EDTA, 500 mM KF, 0.2% (w/v) bovine serum albumin in 100 mM HEPES/NaOH pH 7.5).
The resulting mixture was incubated 2 h at 22° C. to allow the binding of the phosphorylated GST-MEK1 to the anti-GST-XL665 and the Eu-cryptate labelled anti-phospho-MEK 1/2 antibody. Subsequently the amount of Ser217/Ser221-phosphorylated substrate was evaluated by measurement of the resonance energy transfer from the Eu-Cryptate-labelled anti-phospho-MEK antibody to the anti-GST-XL665. Therefore, the fluorescence emissions at 620 nm and 665 nm after excitation at 350 nm was measured in a HTRF reader, e.g. a Rubystar (BMG Labtechnologies, Offenburg, Germany) or a Viewlux (Perkin-Elmer). The ratio of the emissions at 665 nm and at […] was taken as the measure for the amount of phosphorylated substrate. […]

A375 cells = test: A375 proliferation crystal violet (CV) assay; assay type: cell-based; conditions: Homo sapiens, A-375, 96 h, 4 days, crystal violet staining
Procedure: Cultivated human A375 cells were plated out in a density of 1500 cells/measurement point in 200 μl of growth medium (DMEM/HAMS F12 (Biochrom; FG4815) with 10% FBS and 2 mM Glutamine) in a 96-well multititer plate. After 24 hours, the cells from a plate (zero plate) were stained with crystal violet (see below), while the medium in the other plates was replaced by fresh culture medium (200 μl) to which the test substances had been added in various concentrations (0 μM, and in the range 0.3 nM -30 μM; the final concentration of the solvent dimethyl sulphoxide was 0.5%). The cells were incubated in the presence of the test substances for 4 days. The cell proliferation was determined by staining the cells with crystal violet: the cells were fixed by adding 20 μl/measurement point of an 11% glutaraldehyde solution at room temperature for 15 min. After the fixed cells had been washed three times with water, the plates were dried at room temperature. […] The dye was dissolved by adding 100 μl/measurement point of a 10% acetic acid solution, and the extinction was determined by photometry at a wavelength of 595 nm. The percentage change in cell growth was calculated by normalizing the measurements to the extinctions of the zero point plate (=0%) and the extinction of the untreated (0 μM) cells (=100%). The IC50 values were determined by means of a 4-parameter fit using the company's own software.

colon cancer = conditions: oral treatment, mouse models; cited from earlier work
MEK1/2 = conditions: cited from earlier work

T1 sequence (Q02750 whole entry): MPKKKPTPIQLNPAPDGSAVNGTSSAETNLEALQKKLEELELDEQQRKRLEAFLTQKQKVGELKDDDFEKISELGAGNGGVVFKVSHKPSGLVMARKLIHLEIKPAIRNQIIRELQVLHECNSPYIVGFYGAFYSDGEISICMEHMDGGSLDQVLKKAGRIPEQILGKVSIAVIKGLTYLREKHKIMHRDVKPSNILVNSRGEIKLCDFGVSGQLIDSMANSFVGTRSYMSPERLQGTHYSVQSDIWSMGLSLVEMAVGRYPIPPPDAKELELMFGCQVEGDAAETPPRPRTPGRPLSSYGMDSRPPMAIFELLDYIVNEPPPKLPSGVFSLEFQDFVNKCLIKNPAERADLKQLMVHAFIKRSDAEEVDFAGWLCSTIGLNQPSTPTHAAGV

CCS(=O)(=O)Nc1cccc(Oc2cc(F)cc(Nc3ccc(I)cc3F)c2C(N)=O)c1 [Example Compound 1.1, 2-(3-ethanesulfonylamino-phenoxy)-4-fluoro-6-(2-fluoro-4-iodo-phenylamino)-benzamide]
IC50 (MEK1): < 0.3 µM
IC50 (A375 cells): < 0.1 µM

CC(C)S(=O)(=O)Nc1cccc(Oc2cc(F)cc(Nc3ccc(I)cc3F)c2C(N)=O)c1 [Example Compound 1.2, 4-fluoro-2-(2-fluoro-4-iodo-phenylamino)-6-[3-(propane-2-sulfonylamino)-phenoxy]-benzamide]
IC50 (MEK1): < 0.3 µM
IC50 (A375 cells): < 0.1 µM

CC(C)S(=O)(=O)Nc1cncc(Oc2cc(F)cc(Nc3ccc(I)cc3F)c2C(N)=O)c1 [Example Compound 2.1, 4-fluoro-2-(2-fluoro-4-iodo-phenylamino)-6-[5-(propane-2-sulfonylamino)-pyridin-3-yloxy]-benzamide]
IC50 (MEK1): < 0.3 µM

CCS(=O)(=O)Nc1cccc(COc2cc(F)cc(Nc3ccc(I)cc3F)c2C(N)=O)c1 [Example Compound 3.1, 2-(3-ethanesulfonylamino-benzyloxy)-4-fluoro-6-(2-fluoro-4-iodo-phenylamino)-benzamide]
IC50 (MEK1): < 0.3 µM

O=C(NOCC1CC1)c1ccc(F)c(F)c1Nc1ccc(I)cc1Cl [PD184352]
colon cancer growth in vivo (colon cancer): inhibit colon cancer growth in vivo in mouse models
IC50 (MEK1/2): low nanomolar range
